The text below walks through data of publication PMC9706563, “Development of Macrocyclic PRMT5–Adaptor Protein Interaction Inhibitors” (Journal of Medicinal Chemistry, 2022).

SMILES strings stand for the structures. Square brackets hold non-standard residues; d marks the D form. Peptide text beside a SMILES is read from it. * marks the point of attachment. FITC = O=C1OC2(c3ccc(O)cc3Oc3cc(O)ccc32)c2ccc(NC(=S)*)cc21; Phe(4-guanidino) = N=C(N)Nc1ccc(C[C@H](N)C(=O)O)cc1; Cha = N[C@@H](CC1CCCCC1)C(=O)O

For the first test, the target named is T1, PRMT5-MEP50 (Homo sapiens, UniProt O14744).
T1 construct: The compounds were tested by means of FP with the full-length PRMT5-MEP50 complex; made in house
T1 sequence (O14744 whole entry): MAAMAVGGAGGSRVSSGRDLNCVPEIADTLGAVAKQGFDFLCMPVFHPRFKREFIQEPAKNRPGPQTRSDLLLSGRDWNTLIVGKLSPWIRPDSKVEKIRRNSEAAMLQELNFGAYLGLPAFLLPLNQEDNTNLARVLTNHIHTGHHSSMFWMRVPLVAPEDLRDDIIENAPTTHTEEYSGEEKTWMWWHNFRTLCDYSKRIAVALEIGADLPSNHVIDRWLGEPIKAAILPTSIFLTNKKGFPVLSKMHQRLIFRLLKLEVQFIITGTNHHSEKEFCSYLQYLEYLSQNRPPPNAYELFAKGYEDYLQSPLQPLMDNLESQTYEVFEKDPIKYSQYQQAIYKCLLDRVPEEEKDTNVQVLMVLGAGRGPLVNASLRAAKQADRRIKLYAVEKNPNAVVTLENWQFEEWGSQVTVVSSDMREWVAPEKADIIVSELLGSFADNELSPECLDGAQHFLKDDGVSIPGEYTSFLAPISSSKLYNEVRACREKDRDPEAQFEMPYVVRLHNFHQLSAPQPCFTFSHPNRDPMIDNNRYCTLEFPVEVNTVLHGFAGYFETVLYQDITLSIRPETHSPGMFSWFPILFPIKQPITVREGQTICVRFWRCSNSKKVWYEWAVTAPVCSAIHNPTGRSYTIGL
T1 sequence (Q9BQA1 whole entry partner): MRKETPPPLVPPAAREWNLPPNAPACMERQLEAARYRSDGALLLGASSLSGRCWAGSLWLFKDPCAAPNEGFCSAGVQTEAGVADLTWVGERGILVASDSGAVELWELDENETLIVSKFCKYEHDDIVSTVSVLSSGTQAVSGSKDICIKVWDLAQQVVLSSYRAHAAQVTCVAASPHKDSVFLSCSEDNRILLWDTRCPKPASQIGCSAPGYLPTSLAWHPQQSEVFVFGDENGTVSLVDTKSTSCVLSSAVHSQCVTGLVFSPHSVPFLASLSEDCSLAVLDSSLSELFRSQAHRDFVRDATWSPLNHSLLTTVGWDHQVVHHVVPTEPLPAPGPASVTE
Nature of the test: Direct binding fluorescence polarization (FP) assay of FITC-labeled peptides. The conditions noted are these: FITC-labeled peptide 1 nM, PRMT5-MEP50 titrated, read-out: KD.
Description: The assay was performed in a buffer of 50 mM 4-(2-hydroxyethyl)-1-piperazineethanesulfonic acid (HEPES), 250 mM NaCl, 1 mM tris(2-carboxyethyl)phosphine (TCEP), and 0.01% (v/v) Tween 20, pH 8.0, in black, 384-well plates with a total volume of 10 μL per well. […] The plates were incubated at room temperature for 1 to 2 h and analyzed on a plate reader using 485 nm excitation and 535 nm emission wavelength. The assay was performed in triplicate.
In the case of `CC(=O)N[C@H](C(=O)N1CCC[C@H]1C(=O)N[C@@H]1CCCCC[C@@H](C(=O)N[C@@H](CC(=O)O)C(=O)N[C@@H](C)C(=O)N[C@@H](CC(C(=O)O)C(=O)O)C(=O)N[C@@H](CCCCNC(=S)Nc2ccc3c(c2)C(=O)OC32c3ccc(O)cc3Oc3cc(O)ccc32)C(N)=O)NC(=O)[C@H](Cc2ccc([N+](=O)[O-])cc2)NC(=O)[C@H](CCC(N)=O)NC1=O)C(C)C` [Compound 50], the Kd (as a rule, the constant that tells how readily two partners part at equilibrium) worked out at 0.089 ± 0.011 µM.

In the case of `CC(=O)N[C@H](C(=O)N1CCC[C@H]1C(=O)NCC(=O)N[C@@H](CCC(N)=O)C(=O)N[C@@H](Cc1ccccc1)C(=O)N[C@@H](CC(=O)O)C(=O)N[C@@H](CC(=O)O)C(=O)N[C@@H](C)C(=O)N[C@@H](CC(=O)O)C(=O)N[C@@H](CCCCNC(=S)Nc1ccc2c(c1)C(=O)OC21c2ccc(O)cc2Oc2cc(O)ccc21)C(N)=O)C(C)C` [Compound 29] (Ac-VPGQFDDADK(FITC)-NH2), the Kd is 0.67 ± 0.187 µM.

Consider `CC(C)[C@H](NC(=O)[C@H](CCCNC(=N)N)NC(=O)[C@H](CO)NC(=O)COCCOCCNC(=S)Nc1ccc2c(c1)C(=O)OC21c2ccc(O)cc2Oc2cc(O)ccc21)C(=O)N[C@H](C(=O)N1CCC[C@H]1C(=O)NC1CC=CC[C@@H](C(=O)N[C@@H](CC(=O)O)C(=O)N[C@@H](C)C(=O)N[C@@H](CC(=O)O)C(N)=O)NC(=O)[C@H](Cc2ccccc2)NC(=O)[C@H](CCC(N)=O)NC1=O)C(C)C` (stereo in doubt) [Compound 13], for which the dissociation constant (Kd) is 0.719 ± 0.041 µM.

Still in this test, the particulars now being: supplementary CSV, read-out: PRMT5-MEP50 Kd.
`CC(=O)N[C@H](C(=O)N1CCC[C@H]1C(=O)NCC(=O)N[C@@H](CCC(N)=O)C(=O)N[C@@H](Cc1ccccc1)C(=O)N[C@@H](CC(=O)O)C(=O)N[C@@H](CC(=O)O)C(=O)N[C@@H](C)C(=O)N[C@@H](Cc1ccc(O)cc1)C(=O)N[C@@H](CCCCNC(=S)Nc1ccc2c(c1)C(=O)OC21c2ccc(O)cc2Oc2cc(O)ccc21)C(N)=O)C(C)C` [Compound S32] (Ac-VPGQFDDAYK(FITC)-NH2): the dissociation constant (Kd) was over 1 µM.

As for `CC(=O)N[C@H](C(=O)N1CCC[C@H]1C(=O)NCC(=O)N[C@@H](CCC(N)=O)C(=O)N[C@@H](Cc1ccc(N=C(N)N)cc1)C(=O)N[C@@H](CC(=O)O)C(=O)N[C@@H](CC(=O)O)C(=O)N[C@@H](C)C(=O)N[C@@H](CC(=O)O)C(=O)N[C@@H](CCCCNC(=S)Nc1ccc2c(c1)C(=O)OC21c2ccc(O)cc2Oc2cc(O)ccc21)C(N)=O)C(C)C` [Compound S20] (Ac-VPGQ[Phe(4-guanidino)]DDADK(FITC)-NH2), the Kd is over 1 µM.

Take `CC(=O)N[C@H](C(=O)N1CCC[C@H]1C(=O)NCC(=O)N[C@@H](CCC(N)=O)C(=O)N[C@@H](Cc1ccccc1)C(=O)N[C@@H](CC(=O)O)C(=O)N[C@@H](CC(=O)O)C(=O)N[C@@H](CC1CCCCC1)C(=O)N[C@@H](CC(=O)O)C(=O)N[C@@H](CCCCNC(=S)Nc1ccc2c(c1)C(=O)OC21c2ccc(O)cc2Oc2cc(O)ccc21)C(N)=O)C(C)C` [Compound S30] (Ac-VPGQFDD[Cha]DK(FITC)-NH2): the Kd is over 1 µM.

For `CC(=O)N[C@H](C(=O)N1CCC[C@H]1C(=O)NCC(=O)N[C@@H](CCC(N)=O)C(=O)N[C@@H](Cc1ccccc1)C(=O)N[C@@H](CC(=O)O)C(=O)N[C@@H](CC(=O)O)C(=O)N[C@@H](C)C(=O)N[C@@H](CCC(=O)O)C(=O)N[C@@H](CCCCNC(=S)Nc1ccc2c(c1)C(=O)OC21c2ccc(O)cc2Oc2cc(O)ccc21)C(N)=O)C(C)C` [Compound 33] (Ac-VPGQFDDAEK(FITC)-NH2), the dissociation constant (Kd) turned out to be 0.531 ± 0.023 µM.

Turning to `CC(=O)N[C@H](C(=O)N1CCC[C@H]1C(=O)N[C@@H]1CC=CCC[C@H](C(=O)N[C@@H](CC(=O)O)C(=O)N[C@@H](C)C(=O)N[C@@H](CC(=O)O)C(=O)N[C@@H](CCCCNC(=S)Nc2ccc3c(c2)C(=O)OC32c3ccc(O)cc3Oc3cc(O)ccc32)C(N)=O)NC(=O)[C@H](Cc2ccccc2)NC(=O)[C@H](CCC(N)=O)NC1=O)C(C)C` [Compound 23], the equilibrium dissociation constant (Kd) is over 2 µM.
